Test results from US7833722B2, “Ligands for G protein-coupled receptor protein and use thereof” (Takeda Pharmaceutical Company Limited, priority 2004, dated 2010).

Experiments:
[1] = molecular target: T1, GPR17 (Homo sapiens, UniProt Q13304); test: SRE-luciferase reporter assay in GPR17-expressed HeLa cells
[2] = test system: SP-induced biting response (pain response); test: Substance P-induced biting response after intrathecal administration to mice; assay type: in vivo; settings: 0.66, 2.0 and 6.6 μg/mouse intrathecal with SP 10 μg, male ICR mice, counted for one minute, FIG. 3
Experimental: In order to examine effects of 5-aminolevulic acid (ALA) on pain, ALA was mixed with substance P (SP) and the mixture was intrathecally administered. Male ICR mice of 5 weeks age for intrathecal administration received incision on the dorsal tail and habituated at least for an hour. Thereafter, SP (10 μg) alone or a mixture of SP (10 μg) and ALA was intrathecally administered to the mice (5 μL/mouse) between the L5 and L6 level of the spinal cord, under no anesthesia. Immediately after administration, the number of times that the mice bit the underbody mutually was counted for one minute and the number was made an indicator of false pain response by SP.

[3] = molecular target: T1, GPR17; test: Suppression of forskolin-increased intracellular cAMP level in GPR17-expressed CHO cells; assay type: cell-based; design: expressed in transfected cells; settings: forskolin 2 μM, 30 minutes, ALA in various concentrations, FIG. 2
Experimental: The GPR17-expressed CHO cells was incubated overnight and then washed with an assay medium (HBBBS supplemented with 0.1% bovine serum albumin and 0.2 mM IBMX, followed by incubation at 37° C. for 30 minutes under 5% CO2 conditions. ALA diluted with the assay medium in various concentrations and forskolin were added thereto in 2 μM, followed by incubation at 37° C. for 30 minutes under 5% CO2 conditions. The culture supernatant was discarded and the intracellular cAMP level was determined on a plate reader (EnVision, PerkinElmer), following the protocol of cAMP Screen Kit (Applied Biosystems).

[4] = molecular target: T2, GPR40 (Homo sapiens, UniProt O14842); test: SRE-luciferase reporter assay in GPR40 expression cells used for control; assay type: cell-based; settings: PBG 1000 μM
T2 construct: expressed in transfected cells; host or cells: GPR40 expression cells
T2 sequence (O14842 whole entry, species assumed): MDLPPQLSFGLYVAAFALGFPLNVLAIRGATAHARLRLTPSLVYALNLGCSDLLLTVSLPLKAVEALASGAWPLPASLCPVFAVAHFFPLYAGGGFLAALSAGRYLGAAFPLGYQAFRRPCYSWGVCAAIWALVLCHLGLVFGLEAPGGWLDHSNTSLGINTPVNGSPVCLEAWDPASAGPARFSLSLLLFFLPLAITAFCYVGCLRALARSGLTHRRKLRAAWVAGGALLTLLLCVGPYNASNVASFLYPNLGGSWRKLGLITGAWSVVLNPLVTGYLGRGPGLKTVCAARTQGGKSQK

T1 sequence (Q13304 29-367): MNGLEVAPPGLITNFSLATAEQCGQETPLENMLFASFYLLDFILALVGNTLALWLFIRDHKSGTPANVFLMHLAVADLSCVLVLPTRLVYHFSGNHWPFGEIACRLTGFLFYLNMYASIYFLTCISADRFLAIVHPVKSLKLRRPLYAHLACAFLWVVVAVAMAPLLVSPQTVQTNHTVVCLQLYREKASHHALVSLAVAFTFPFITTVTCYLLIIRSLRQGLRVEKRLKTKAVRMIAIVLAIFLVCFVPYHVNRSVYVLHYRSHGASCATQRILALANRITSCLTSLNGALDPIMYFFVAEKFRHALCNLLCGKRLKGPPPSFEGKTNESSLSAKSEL

| Compound | luciferase activity in the GPR17-expressed cells (in words) ([1]; ALA 200 μM) | Increased Luciferase Activity (cps) by ALA in GPR17-Expressed Cells ([1]; ALA 200 μM, HeLa cells, 4 hours incubation) [cps] | effect on SP-induced biting response (pain response) [2] | intracellular cAMP level increased by forskolin addition [3] | Increased luciferase activity (cps) in the GPR17 expression cells by PBG ([1]; PBG 1000 μM) [cps] | luciferase activity in the GPR17 expression cells (in words) ([1]; PBG 1000 μM) | luciferase activity (cps), GPR40 (control) [4] [cps] |
| --- | --- | --- | --- | --- | --- | --- | --- |
| NCC(=O)CCC(=O)O [ALA, 5-aminolevulinic acid] | increased luciferase activity | 6707 | significant suppression effect | dose-dependent and specific decrease |  |  |  |
| NCc1[nH]cc(CCC(=O)O)c1CC(=O)O [PBG, porphobilinogen] |  |  |  |  | 37999 | increased luciferase activity | 3769 |
